25 compounds from ChEMBL document CHEMBL4627274, “Optimized plant compound with potent anti-biofilm activity across gram-negative species” (Bioorg Med Chem, 2020) can be followed below.

What all share (type): functional
In one experiment the test system is Pseudomonas aeruginosa. Put plainly: Inhibition of swarming motility of Pseudomonas aeruginosa HONKR at 16 ug/mL incubated for 16 to 20 hrs relative to control.
Experiment [1] concerns Escherichia coli. As to the kind of experiment: Inhibition of swarming motility of Escherichia coli PY31 at 16 ug/mL incubated for 16 to 20 hrs relative to control.
In experiment [2] the test system is Escherichia coli. As to the kind of experiment: Antibiofilm activity against Escherichia coli UTI89 incubated for 2 days at 23 degC followed by 1 day incubation at RT.

Usually inhibition stands for the drop in the measured response relative to a control, in per cent.

Each structure is given as a SMILES string. Bounds are passed on as bounds.

Consider `CC1(C)CC[C@]2(C(=O)O)CC[C@]3(C)C(=CC[C@@H]4[C@@]5(C)C[C@@H](C6=NCCN6)[C@H](O)C(C)(C)[C@@H]5CC[C@]43C)[C@@H]2C1`, for which the inhibition at 16 µg/mL is under 20% in the experiment on Pseudomonas aeruginosa and over 90% with Escherichia coli [1]. Besides, the MBIC50 result in the experiment with Escherichia coli [2] is on record as “>=32 ug ml-1”.
On the same counts, the results for `CCCN(C)C(=O)[C@@H]1C[C@]2(C)[C@H]3CC=C4[C@@H]5CC(C)(C)CC[C@]5(C(=O)O)CC[C@@]4(C)[C@]3(C)CC[C@H]2C(C)(C)[C@H]1O` are under 20%, 50% and 4 µg/mL.
In the case of `CCN(C[C@@H]1C[C@]2(C)[C@H]3CC=C4[C@@H]5CC(C)(C)CC[C@]5(C(=O)O)CC[C@@]4(C)[C@]3(C)CC[C@H]2C(C)(C)[C@H]1O)C(C)=O`, the inhibition at 16 µg/mL in the experiment with Pseudomonas aeruginosa is under 20%; in the experiment on Escherichia coli [1], 30%. This compound also displayed an MBIC50 in the experiment with Escherichia coli [2] of 4 µg/mL.
Consider `C[C@H]1[C@H](C)CC[C@]2(C(=O)O)CC[C@]3(C)C(=CC[C@@H]4[C@@]5(C)[C@H](O)[C@@H](O)[C@@H](O)[C@](C)(CO)[C@@H]5CC[C@]43C)[C@H]12`, for which testing at 16 µg/mL with Pseudomonas aeruginosa gave an inhibition of 80%.
For `C=C(C)[C@@H]1CC[C@]2(C)CC[C@]3(C)[C@H](CC[C@@H]4[C@@]5(C)CC[C@H](O)C(C)(C)[C@@H]5CC[C@]43C)[C@@H]12` [LUPEOL], in the experiment on Pseudomonas aeruginosa, the inhibition at 16 µg/mL is under 20%.
Consider `CC(=O)N(C(C)=O)c1ncc2c(n1)C(C)(C)[C@@H]1CC[C@]3(C)[C@H](CC=C4[C@@H]5CC(C)(C)CC[C@]5(C(=O)O)CC[C@]43C)[C@@]1(C)C2`, for which the inhibition at 16 µg/mL in the experiment on Pseudomonas aeruginosa was determined as 90%; in the experiment on Escherichia coli [1], 70%. The same compound displayed an MBIC50 in the experiment with Escherichia coli [2] of 8 µg/mL.
`C[C@H]1[C@H](C)CC[C@]2(C(=O)O)CC[C@]3(C)C(=CC[C@@H]4[C@@]5(C)C[C@@H](O)[C@H](O)[C@@](C)(CO)[C@@H]5CC[C@]43C)[C@H]12` [ASIATIC ACID]: the inhibition at 16 µg/mL with Pseudomonas aeruginosa stood at 70%.
On the same count and under the same terms, the same measure for `C[C@H]1[C@H](C)CC[C@]2(C(=O)O)CC[C@]3(C)C(=CC[C@@H]4[C@@]5(C)CC[C@H](O)C(C)(C)[C@@H]5CC[C@]43C)[C@H]12` [URSOLIC ACID]: over 90%; for `C[C@H]1[C@H](C)CC[C@]2(C(=O)O)CC[C@]3(C)C(=CC[C@@H]4[C@@]5(C)C[C@@H](O)[C@H](O)[C@@](C)(CO)[C@@H]5[C@H](O)C[C@]43C)[C@H]12` [MADECASSIC ACID]: 90%; for `C=C(C)[C@@H]1CC[C@]2(C(=O)O)CC[C@]3(C)[C@H](CC[C@@H]4[C@@]5(C)CC[C@H](O)C(C)(C)[C@@H]5CC[C@]43C)[C@@H]12` [BETULINIC ACID]: 80%.
On the same count and under the same terms, the result for `C[C@H]1[C@H](C)CC[C@]2(C(=O)O)CC[C@]3(C)C(=CC[C@@H]4[C@@]5(C)C[C@@H](O)[C@@H](O)[C@](C)(CO)[C@@H]5CC[C@]43C)[C@H]12` reads 90%; that for `COC(=O)[C@]12CCC(C)(C)C[C@H]1C1=CC[C@@H]3[C@@]4(C)CC[C@H](O)C(C)(C)[C@@H]4CC[C@@]3(C)[C@]1(C)CC2` [METHYL OLEANOLATE], 30%.
For the compound `CC1(C)CC[C@]2(C(=O)O)CC[C@]3(C)C(=CC[C@@H]4[C@@]5(C)C[C@@H](C6=NCCCN6)[C@H](O)C(C)(C)[C@@H]5CC[C@]43C)[C@@H]2C1`, the inhibition at 16 µg/mL was under 20% in the experiment on Pseudomonas aeruginosa and 60% in the experiment on Escherichia coli [1]. Also, the MBIC50 in the experiment on Escherichia coli [2] is 4 µg/mL.
As for `CN(C)C(=O)[C@@H]1C[C@]2(C)[C@H]3CC=C4[C@@H]5CC(C)(C)CC[C@]5(C(=O)O)CC[C@@]4(C)[C@]3(C)CC[C@H]2C(C)(C)[C@H]1O`, the inhibition at 16 µg/mL in the experiment on Pseudomonas aeruginosa and in the experiment with Escherichia coli [1] was under 20% throughout. In the experiment with Escherichia coli [2], this compound came in with an MBIC50 of 4 µg/mL.
As for `Cn1ccnc1[C@@H]1C[C@]2(C)[C@H]3CC=C4[C@@H]5CC(C)(C)CC[C@]5(C(=O)O)CC[C@@]4(C)[C@]3(C)CC[C@H]2C(C)(C)[C@H]1O`, the figures for the inhibition at 16 µg/mL in the experiment with Pseudomonas aeruginosa and in the experiment with Escherichia coli [1] were under 20% and 80%, respectively. In addition, the MBIC50 result in the experiment on Escherichia coli [2] is given as “>=32 ug ml-1”.
On the same counts, the results for `CC1(C)CC[C@]2(C(=O)O)CC[C@]3(C)C(=CC[C@@H]4[C@@]5(C)Cc6c(O)nc(N)nc6C(C)(C)[C@@H]5CC[C@]43C)[C@@H]2C1` are 90%, over 90% and “>=32 ug ml-1”.
In the case of `CC(C)CN(C)C[C@@H]1C[C@]2(C)[C@H]3CC=C4[C@@H]5CC(C)(C)CC[C@]5(C(=O)O)CC[C@@]4(C)[C@]3(C)CC[C@H]2C(C)(C)[C@H]1O`, the figures for the inhibition at 16 µg/mL in the experiment on Pseudomonas aeruginosa and in the experiment with Escherichia coli [1] were under 20% and 90%, respectively. In addition, in the experiment on Escherichia coli [2], the MBIC50 entry was “>=32 ug ml-1”.
On the same counts, the results for `CC1(C)CC[C@]2(C(=O)O)CC[C@]3(C)C(=CC[C@@H]4[C@@]5(C)Cc6cnc(N)nc6C(C)(C)[C@@H]5CC[C@]43C)[C@@H]2C1` are 80%, 90% and “>=32 ug ml-1”.
As to `C[C@H]1[C@H](C)CC[C@]2(C(=O)O)CC[C@]3(C)C(=CC[C@@H]4[C@@]5(C)C[C@@H](O)[C@@H](O)C(C)(C)[C@@H]5CC[C@]43C)[C@H]12` [PYGENIC ACID A], the inhibition at 16 µg/mL in the experiment on Pseudomonas aeruginosa is over 90%.
Regarding `CN(C)C[C@@H]1C[C@]2(C)[C@H]3CC=C4[C@@H]5CC(C)(C)CC[C@]5(C(=O)O)CC[C@@]4(C)[C@]3(C)CC[C@H]2C(C)(C)[C@H]1O`, the figures for the inhibition at 16 µg/mL with Pseudomonas aeruginosa and in the experiment on Escherichia coli [1] were under 20% and 70%, respectively. Further, in the experiment with Escherichia coli [2], the MBIC50 result is reported as “>=32 ug ml-1”.
For `C[C@H]1[C@H](C)CC[C@]2(CO)CC[C@]3(C)C(=CC[C@@H]4[C@@]5(C)CC[C@H](O)C(C)(C)[C@@H]5CC[C@]43C)[C@H]12` [UVAOL], the inhibition at 16 µg/mL in the experiment with Pseudomonas aeruginosa is under 20%.
As for `CN1C[C@@H]2C[C@]3(C)[C@H]4CC=C5[C@@H]6CC(C)(C)CC[C@]6(C(=O)O)CC[C@@]5(C)[C@]4(C)CC[C@H]3C(C)(C)[C@H]2OC1=O`, the inhibition at 16 µg/mL in the experiment on Pseudomonas aeruginosa and in the experiment on Escherichia coli [1] was under 20% throughout. Moreover, in the experiment with Escherichia coli [2], the MBIC50 result was “>=32 ug ml-1”.
As to `CC1(C)CC[C@]2(C(=O)O)CC[C@]3(C)C(=CC[C@@H]4[C@@]5(C)C[C@@H](C(=O)NC6CC6)[C@H](O)C(C)(C)[C@@H]5CC[C@]43C)[C@@H]2C1`, the inhibition at 16 µg/mL was under 20% with Pseudomonas aeruginosa and 70% with Escherichia coli [1]. The same compound came in with an MBIC50 in the experiment on Escherichia coli [2] of 4 µg/mL.
On to `CN(C)CCNC(=O)[C@@H]1C[C@]2(C)[C@H]3CC=C4[C@@H]5CC(C)(C)CC[C@]5(C(=O)O)CC[C@@]4(C)[C@]3(C)CC[C@H]2C(C)(C)[C@H]1O`, for which the inhibition at 16 µg/mL in the experiment with Pseudomonas aeruginosa is under 20%; in the experiment on Escherichia coli [1] it was 30%. For the same compound, the MBIC50 with Escherichia coli [2] stood at 4 µg/mL.
For `CC1(C)CC[C@]2(C(=O)O)CC[C@]3(C)C(=CC[C@@H]4[C@@]5(C)C[C@@H](C(=O)N6CCOCC6)[C@H](O)C(C)(C)[C@@H]5CC[C@]43C)[C@@H]2C1`, the inhibition at 16 µg/mL in the experiment on Pseudomonas aeruginosa and in the experiment on Escherichia coli [1] was under 20% in each case. The same compound showed an MBIC50 with Escherichia coli [2] of 4 µg/mL.
